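Grown in 96-well plates, cells were treated for 48 hours with each compound at five concentrations. Insufficient inhibition: endpoint recorded as highest concentration tested. Definition used: TGI = concentration required for complete inhibition of growth.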
Legend:
Assay in all cases: NCI anticancer screen, dose series, 48 h
HS 578T breast = test system: HS 578T breast
PC-3 prostate = test system: PC-3 prostate
HCT-116 colon = test system: HCT-116 colon
A549 NSCLC = test system: A549 NSCLC
RXF 393 renal = test system: RXF 393 renal
UACC-62 melanoma = test system: UACC-62 melanoma
HOP-92 NSCLC = test system: HOP-92 NSCLC
KM12 colon = test system: KM12 colon
MDA-N = test system: MDA-N
SNB-19 CNS = test system: SNB-19 CNS
786-0 renal = test system: 786-0 renal
TK-10 renal = test system: TK-10 renal
SN12C renal = test system: SN12C renal
T-47D breast = test system: T-47D breast
SK-OV-3 ovarian = test system: SK-OV-3 ovarian
MDA-MB-435 = test system: MDA-MB-435
NCI/ADR-RES ovarian = test system: NCI/ADR-RES ovarian
HCC-2998 colon = test system: HCC-2998 colon
CCRF-CEM leukemia = test system: CCRF-CEM leukemia
SK-MEL-2 melanoma = test system: SK-MEL-2 melanoma
K-562 leukemia = test system: K-562 leukemia
HCT-15 colon = test system: HCT-15 colon
SW-620 colon = test system: SW-620 colon
SF-539 CNS = test system: SF-539 CNS
ACHN renal = test system: ACHN renal
OVCAR-3 ovarian = test system: OVCAR-3 ovarian
U251 CNS = test system: U251 CNS
HOP-62 NSCLC = test system: HOP-62 NSCLC
CAKI-1 renal = test system: CAKI-1 renal
DU-145 prostate = test system: DU-145 prostate
OVCAR-5 ovarian = test system: OVCAR-5 ovarian
RPMI-8226 leukemia = test system: RPMI-8226 leukemia
UO-31 renal = test system: UO-31 renal
LOX IMVI melanoma = test system: LOX IMVI melanoma
NCI-H226 lung = test system: NCI-H226 lung
MCF7 breast = test system: MCF7 breast
SK-MEL-5 melanoma = test system: SK-MEL-5 melanoma
UACC-257 melanoma = test system: UACC-257 melanoma
SK-MEL-28 melanoma = test system: SK-MEL-28 melanoma
MDA-MB-231 breast = test system: MDA-MB-231 breast
M14 melanoma = test system: M14 melanoma
SF-295 CNS = test system: SF-295 CNS
SNB-75 CNS = test system: SNB-75 CNS
A498 renal = test system: A498 renal
OVCAR-4 ovarian = test system: OVCAR-4 ovarian
SF-268 CNS = test system: SF-268 CNS
EKVX NSCLC = test system: EKVX NSCLC
HL-60(TB) leukemia = test system: HL-60(TB) leukemia
HT29 colon = test system: HT29 colon
COLO 205 colon = test system: COLO 205 colon
MALME-3M melanoma = test system: MALME-3M melanoma
IGROV1 ovarian = test system: IGROV1 ovarian
NCI-H460 lung = test system: NCI-H460 lung
NCI-H522 lung = test system: NCI-H522 lung
OVCAR-8 ovarian = test system: OVCAR-8 ovarian
MOLT-4 leukemia = test system: MOLT-4 leukemia
SR leukemia = test system: SR leukemia
NCI-H23 lung = test system: NCI-H23 lung

Measured: TGI

CC1(C)[C@@H](Cn2nnc3c(N)ncnc32)CC[C@@]1(C)CO
> 100 µM: HS 578T breast | PC-3 prostate | HCT-116 colon | A549 NSCLC | RXF 393 renal | UACC-62 melanoma | HOP-92 NSCLC | KM12 colon | MDA-N | SNB-19 CNS | 786-0 renal | TK-10 renal | SN12C renal | T-47D breast | SK-OV-3 ovarian | MDA-MB-435 | NCI/ADR-RES ovarian | CCRF-CEM leukemia | SK-MEL-2 melanoma | K-562 leukemia | HCT-15 colon | SW-620 colon | SF-539 CNS | ACHN renal | OVCAR-3 ovarian | U251 CNS | HOP-62 NSCLC | CAKI-1 renal | DU-145 prostate | OVCAR-5 ovarian | RPMI-8226 leukemia | UO-31 renal | LOX IMVI melanoma | NCI-H226 lung | MCF7 breast | SK-MEL-5 melanoma | UACC-257 melanoma | SK-MEL-28 melanoma | MDA-MB-231 breast | M14 melanoma | SF-295 CNS | SNB-75 CNS | A498 renal | OVCAR-4 ovarian | SF-268 CNS | EKVX NSCLC
29 µM: HCC-2998 colon

CC1=C(C#N)C2C(=C(C)N1)C(N)=Nc1ccccc12 (stereo unspecified)
95.6 µM: IGROV1 ovarian
70.8 µM: PC-3 prostate
> 100 µM: HT29 colon | HCT-116 colon | A549 NSCLC | RXF 393 renal | UACC-62 melanoma | COLO 205 colon | MALME-3M melanoma | KM12 colon | MDA-N | SNB-19 CNS | 786-0 renal | TK-10 renal | SN12C renal | T-47D breast | SK-OV-3 ovarian | NCI/ADR-RES ovarian | HCC-2998 colon | CCRF-CEM leukemia | SK-MEL-2 melanoma | HCT-15 colon | SW-620 colon | NCI-H460 lung | SF-539 CNS | ACHN renal | OVCAR-3 ovarian | NCI-H522 lung | HOP-62 NSCLC | CAKI-1 renal | DU-145 prostate | OVCAR-5 ovarian | LOX IMVI melanoma | MCF7 breast | SK-MEL-5 melanoma | OVCAR-8 ovarian | MOLT-4 leukemia | UACC-257 melanoma | SK-MEL-28 melanoma | MDA-MB-231 breast | M14 melanoma | SR leukemia | SF-295 CNS | NCI-H23 lung | OVCAR-4 ovarian | SF-268 CNS
74.7 µM: HS 578T breast
44.1 µM: SNB-75 CNS
89.4 µM: EKVX NSCLC
62.2 µM: HOP-92 NSCLC
81.6 µM: HL-60(TB) leukemia
97.8 µM: A498 renal
93.8 µM: NCI-H226 lung

CC1CN=C(N(C)C(=O)Nc2ccc(Cl)cc2)S1 (stereo unspecified)
41.8 µM: SK-MEL-28 melanoma
35.5 µM: UACC-257 melanoma
> 100 µM: HL-60(TB) leukemia | HS 578T breast | HT29 colon | PC-3 prostate | HCT-116 colon | A549 NSCLC | MALME-3M melanoma | KM12 colon | MDA-N | SNB-19 CNS | 786-0 renal | TK-10 renal | SN12C renal | IGROV1 ovarian | SK-OV-3 ovarian | HCC-2998 colon | K-562 leukemia | HCT-15 colon | SW-620 colon | NCI-H460 lung | OVCAR-3 ovarian | U251 CNS | HOP-62 NSCLC | CAKI-1 renal | DU-145 prostate | LOX IMVI melanoma | MCF7 breast | OVCAR-8 ovarian | MDA-MB-231 breast | M14 melanoma | SF-295 CNS | SNB-75 CNS | NCI-H23 lung | A498 renal | OVCAR-4 ovarian | SF-268 CNS | EKVX NSCLC
37.3 µM: SK-MEL-2 melanoma
61 µM: UO-31 renal
80.2 µM: COLO 205 colon
66.4 µM: OVCAR-5 ovarian
68.8 µM: HOP-92 NSCLC
44.1 µM: MOLT-4 leukemia
37.5 µM: NCI/ADR-RES ovarian
92.2 µM: SR leukemia
65.6 µM: T-47D breast
22 µM: SK-MEL-5 melanoma
95.6 µM: ACHN renal
30.8 µM: SF-539 CNS
